Data: patent publication US9889152B2, “Multiple PPI dosage form” (TAKEDA PHARMACEUTICALS U.S.A., INC., priority 2004, dated 2018)

How the values were obtained:
[1] = tested on: gastric pH; assay: Threshold level modeling: effect compartment / sigmoid Emax PK-PD model of intragastric pH versus lansoprazole concentration after single intravenous doses; assay type: in vivo, humans; details: effect compartment concentration (assumed same as plasma concentration at steady-state), fasting, FIG. 1
Excerpt: Plasma concentration data obtained following administration of single intravenous doses of lansoprazole in humans was modeled to establish threshold concentrations above which a PPI is effective. Initially, gastric pH measured over the five hours post dosing (under fasting conditions) was plotted as a function of plasma concentration. However, no direct relationship between the gastric pH and the drug's plasma concentration could be established. […] An effect compartment model was then used in an attempt to delineate a useful relationship between drug concentration and effect. Accordingly, a model was proposed where a PK compartment was linked to a separate effect compartment. […] Using the same intravenous data, the pharmacological effect was modeled using sigmoid Emax model and PK was modeled using the two compartment model. The modeling first established the pharmacokinetic characteristics of lansoprazole, then the relationship between drug plasma concentration and intragastric pH was established, and pharacodynamic parameter estimates were obtained. The modeling provided the graph shown in FIG. 1 where the effect compartment concentration (assumed to be the same as the plasma concentration at steady-state) is on the x-axis and gastric pH on the y-axis. […]

[2] = Site of absorption study (Phase 1, remote control capsule, segmental absorption and pharmacokinetics); assay type: in vivo, human; details: 30 mg powder with sodium bicarbonate released via remote control capsule; healthy adult males
Excerpt: This was a Phase 1, open-label, non-randomized, four-period, single-dose, crossover study in 8 healthy adult males. […] Upon receiving a remote signal during Periods 1, 2, and 3, the capsule released it's contents in the pre-designated site within the GI tract (see table 1 below).
Indium-111 chloride (^111 In-chloride) was used as the radioactive marker in the test formulation that was filled into remote control capsule. Each subject also received a second radioisotope, technetium-99m DTPA (^99mTc-DTPA), in the water used to swallow the InteliSite Companion capsule. Since the radioisotopes are not absorbed, progress of the formulation through the GI tract was monitored using a gamma camera that captures images at frequent intervals after ingestion of the dose. The radioisotope in the water outlined or “mapped” the GI tract to delineate the targeted site of drug release. […]
The relative bioavailability of lansoprazole delivered to the proximal small intestine, distal small intestine, or colon compared to the delayed release lansoprazole capsule was calculated as the ratios of AUC∞ for different GI regions to that of the delayed release capsule. In addition, the relative bioavailability of lansoprazole delivered to the distal small intestine and colon compared to the proximal small intestine was calculated.

Compound: Cc1c(OCC(F)(F)F)ccnc1C[S+]([O-])c1nc2ccccc2[nH]1 (stereo not shown) [lansoprazole]
- concentration above which the effect on gastric pH levels off [1]: ~450 ng/ml
- threshold concentration above which the effect of the drug (rise of gastric pH above baseline) begins [1]: approximately 100 ng/ml
- extent of absorption when directly delivered to the colon [2]: reduced
- rate and extent of absorption from the distal small intestine versus proximal intestine [2]: less than those obtained for the proximal intestine, although the absorptions were comparable
